Results reported in US20100113460A1, “Organic Compounds” (Givaudan SA, priority 2007, published 2010).
Read-outs that look alike come from different tables or passages of the source.

Key:
CYP2A13 = molecular target: T1, CYP2A13 (Homo sapiens, UniProt Q16696); assay: CYP2A13 inhibition, coumarin to 7-hydroxy-coumarin (Umbelliferone) fluorescence assay in microsomes
T1 sequence (Q16696 1-494): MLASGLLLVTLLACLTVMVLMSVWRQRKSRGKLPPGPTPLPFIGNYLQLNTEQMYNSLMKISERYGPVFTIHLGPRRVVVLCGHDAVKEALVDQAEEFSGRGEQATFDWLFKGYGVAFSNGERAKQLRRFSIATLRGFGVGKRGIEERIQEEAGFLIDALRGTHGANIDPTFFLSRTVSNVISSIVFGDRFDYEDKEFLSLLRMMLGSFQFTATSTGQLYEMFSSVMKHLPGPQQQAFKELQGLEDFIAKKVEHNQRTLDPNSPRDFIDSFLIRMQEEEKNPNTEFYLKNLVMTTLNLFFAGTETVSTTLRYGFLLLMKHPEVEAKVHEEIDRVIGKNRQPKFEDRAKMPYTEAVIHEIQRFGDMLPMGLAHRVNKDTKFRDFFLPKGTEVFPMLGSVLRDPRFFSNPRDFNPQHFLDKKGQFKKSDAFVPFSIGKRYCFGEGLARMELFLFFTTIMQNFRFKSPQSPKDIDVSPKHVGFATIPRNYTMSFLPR
Experimental: Compounds that inhibit the activity of CYP2A13 are identified by using a standard reaction established for the enzyme. A known substrate is coumarin, and the product of the enzymatic reaction is 7-hydroxy-coumarin (Umbelliferone) which is strongly fluorescent. When a compound is added to the standard reaction and the formation of Umbelliferone is decreased, the compound is identified as an inhibitor, which can also be a competitive substrate of the enzyme. The compound is used at various concentrations and the concentration-dependent decrease in Umbelliferone formation allows to determine the concentration where the activity of the enzyme is reduced to the 50% level (IC50 value).
A test compound (details see Table 1) was incubated with CYP2A13 in the presence of a cytochrome P450 reductase. CYP2A13 and P450 reductase were employed in form of microsomes. […] Preferably, the two enzymes are coexpressed in the same insect cells and microsomes prepared which contain both enzymes. […] An MOI of 4 for recombinant CYP2A13 baculovirus combined with an MOI of 3.5 for recombinant P450 reductase baculovirus routinely produced microsomes with considerable activity.
Microsomes were used which contained 7 pmoles CYP2A13. […] The concentration of the standard substrate coumarin was 0.006 mM. […] The mixture was incubated for 10 min at 37° C. prior to the initiation of the enzymatic reaction by the addition of 0.005 ml of a solution of 50 mM NADPH in water. The final total volume was 0.2 ml, which is suitable for microtiter plate measurements. The samples were incubated for 60 min at 37° C. After 60 min, the enzymatic reaction was stopped by the addition of 0.02 ml cold 50% trichloroacetic acid (TCA) and incubated at 4° C. for 15 min. 0.005 ml of a solution of 50 mM NADPH in water was added to the control reaction which corresponds to the reaction without test compound and without NADPH, and as a consequence, no Umbelliferone was formed. Denatured proteins and other insoluble parts were separated by centrifugation (10 min, 560×g, room-temperature).
The samples were analysed spectrofluorometrically which allows to detect the formation of Umbelliferone as the enzymatic product of coumarin at an excitation wavelength of 340 nm and an emission wavelength of 480 nm.

Human CYP2B6 = molecular target: T2, Human CYP2B6 (Homo sapiens, UniProt P20813); assay: Inhibition of human CYP2B6, 7-ethoxy-4-trifluoromethyl-coumarin fluorescence assay in microsomes; assay type: biochemical; details: substrate 7-ethoxy-4-trifluoromethyl-coumarin 6 μM, 40 min at 37° C.; read-out: CYP2B6 inhibitor activity IC50
T2 construct: made in house; host or cells: Sf9 insect cells, recombinant baculoviruses (coexpression)
T2 sequence (P20813 1-491): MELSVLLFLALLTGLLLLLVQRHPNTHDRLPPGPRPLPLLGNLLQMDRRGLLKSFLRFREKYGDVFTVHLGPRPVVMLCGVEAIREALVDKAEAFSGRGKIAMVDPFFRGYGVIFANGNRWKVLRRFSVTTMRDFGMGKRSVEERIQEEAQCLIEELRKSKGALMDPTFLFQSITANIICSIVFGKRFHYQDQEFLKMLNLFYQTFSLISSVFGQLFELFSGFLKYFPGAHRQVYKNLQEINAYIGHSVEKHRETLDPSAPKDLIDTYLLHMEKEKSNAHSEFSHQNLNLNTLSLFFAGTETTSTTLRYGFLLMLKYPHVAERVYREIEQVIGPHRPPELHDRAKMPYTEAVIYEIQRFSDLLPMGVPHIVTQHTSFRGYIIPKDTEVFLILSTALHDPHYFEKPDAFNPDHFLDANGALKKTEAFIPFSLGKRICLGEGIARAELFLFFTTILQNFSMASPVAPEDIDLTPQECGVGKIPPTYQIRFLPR
Experimental: Test compounds that inhibit the activity of CYP2B6 are identified by using the same principle as described in Example 28, first paragraph.
A test compound (details see Table 3) was incubated with CYP2B6 in the presence of a cytochrome P450 reductase. CYP2B6 and P450 reductase are produced using recombinant baculoviruses and co-expressing the two proteins in Sf9 insect cells as described in Example 28. Alternatively, microsomes containing CYP2B6 and the reductase are commercially available (BD Biosciences Gentest, USA). Microsomes were used which contained 1.5 pmoles CYP2B6. Potassium phosphate buffer final concentration was 100 mM, (1M stock, pH 7.4). […] The concentration of the standard substrate 7-ethoxy-4-trifluoromethyl-coumarin was 6 μM. […] The samples were incubated for 40 min at 37° C.

CYP2A6 = molecular target: T3, CYP2A6 (Homo sapiens, UniProt P11509); assay: CYP2A6 inhibition, coumarin to Umbelliferone fluorescence assay in microsomes; assay type: biochemical; details: substrate coumarin 0.003 mM, 60 min at 37° C.; read-out: CYP2A6 inhibitor activity IC50
T3 construct: purchased BD Biosciences Gentest, USA
T3 sequence (P11509 1-494): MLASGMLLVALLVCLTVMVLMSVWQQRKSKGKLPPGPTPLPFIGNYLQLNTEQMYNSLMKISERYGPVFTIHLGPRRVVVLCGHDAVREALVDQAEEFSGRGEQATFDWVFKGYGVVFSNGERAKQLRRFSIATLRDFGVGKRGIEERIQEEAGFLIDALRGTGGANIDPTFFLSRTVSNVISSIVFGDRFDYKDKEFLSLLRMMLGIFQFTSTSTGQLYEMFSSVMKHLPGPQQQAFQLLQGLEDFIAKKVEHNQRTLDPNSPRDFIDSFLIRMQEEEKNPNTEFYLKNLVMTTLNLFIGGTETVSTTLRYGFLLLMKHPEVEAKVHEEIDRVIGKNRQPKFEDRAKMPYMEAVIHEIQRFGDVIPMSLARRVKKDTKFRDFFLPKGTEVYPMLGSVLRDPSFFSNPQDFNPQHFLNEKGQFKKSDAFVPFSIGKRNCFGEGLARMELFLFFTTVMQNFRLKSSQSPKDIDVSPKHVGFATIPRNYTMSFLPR
Experimental: Test compounds that inhibit the activity of CYP2A6 are identified by using the same principle as described in Example 28, first paragraph.
A test compound (details see list below) was incubated with CYP2A6 in the presence of a cytochrome P450 reductase. CYP2A6 and P450 reductase were employed in form of microsomes (BD Biosciences Gentest, USA). Microsomes were used which contained 2 pmoles CYP2A6 and an amount of NADPH-P450 reductase corresponding to cytochrome c reductase activity of 87 nmole/(min×mg protein). […] The concentration of the standard substrate coumarin was 0.003 mM.
The samples were analysed spectrofluorometrically according to the procedure described in Example 28.

IC50 (CYP2A13) [µM] | IC50 (Human CYP2B6) [µM] | IC50 (CYP2A6) [µM] | IC50 (CYP2A13; read-out: CYP2A13 inhibitor activity IC50, substrate coumarin 0.006 mM, 60 min at 37° C.) [µM] | Compound
3.4 | 2.2 | 7 |  | CC/C=C\CCn1ccnc1 [Compound ID 23, (Z)-1-(hex-3-enyl)-1H-imidazole]
 | 0.6 |  | 2.1 | CCCCCCn1ccnc1 [Compound ID 16, 1-hexyl-1H-imidazole]
0.3 | 2.7 | 9 |  | c1ncc2c(n1)CCCCCCCCCC2 [Compound ID 1, 5,6,7,8,9,10,11,12,13,14-decahydrocyclododeca[d]pyrimidine]
6.4 | 0.1 | 6 |  | CC(C)=CCC/C(C)=C\Cn1ccnc1 [Compound ID 44, 1-(3,7-dimethylocta-2,6-dienyl)-1H-imidazole]
2 | 5.4 | 53 |  | c1nc2c(o1)CCCCCCCCCC2 [Compound ID 15, 4,5,6,7,8,9,10,11,12,13-decahydrocyclododeca[d]oxazole]

Compound | IC50 (CYP2A13) [µM] | IC50 (Human CYP2B6) [µM] | IC50 (CYP2A6) [µM] | IC50 (CYP2A13; read-out: CYP2A13 inhibitor activity IC50, substrate coumarin 0.006 mM, 60 min at 37° C.) [µM]
C=CCCCCn1ccnc1 [Compound ID 41, 1-(hex-5-enyl)-1H-imidazole] | 5.9 | 1.9 |  | 
